Molecules are shown by their SMILES.

This note sets out measurements from US7214714B2, “20-hydroxyeicosatetraenoic acid production inhibitors” (Taisho Pharmaceutical Co. Ltd., priority 2001, dated 2007).

In data set [1] the target is 20-HETE-Producing Enzyme derived from Human Renal Microsome. The experiment in a line: Inhibitory action to 20-HETE-producing enzyme derived from human renal microsome. The class given is biochemical. Particulars: human renal microsome fraction, tritium-arachidonic acid substrate, NADPH, 37° C., 1.5 hours, pH 7.4; read-out: IC50 (inhibition of 20-HETE production). As to the method:
Inhibitory Action to 20-HETE-Producing Enzyme derived from Human Renal Microsome
With regard to the compounds listed in the above table, their inhibitory actions to 20-HETE production were tested.
This test was carried out in accordance with a method mentioned in J. Pharmacol. Exp. Ther., volume 268, page 474 (1994).
A solution of the test compound adjusted to 1 μM using DMSO was added to a 50 mM of 3-morpholinopropanesulfonic acid buffer (MOPS) (pH 7.4) containing 5 mM of magnesium chloride and 1 mM of sodium ethylenediaminetetraacetate (EDTA), then human renal microsome fraction (Human Cell Culture Center, Anatomic Gift Foundation), [5,6,8,9,11,12,15]tritium-arachidonic acid and NADPH were added thereto as an enzymatic source, a substrate and a coenzyme, respectively and reaction was carried out at 37° C. for 1.5 hours. Formic acid was added to the reaction solution to stop the reaction and then acetonitrile was added thereto (final concentration: 50%). Amount of 20-HETE produced thereby was measured using a high performance liquid chromatography equipped with a radioactive substance detector having an ODS column (Biosil C18; manufactured by Biorad).
Amount of 20-HETE produced when no compound was added was defined as 100% and the concentration of the compound when production of 20-HETE was inhibited to an extent of 50% upon addition of a compound (IC50 value) was calculated.

As for `OCCN1CCN(c2ccc(N/C=N/O)cc2Br)CC1` [Compound 82], the melting point (in general, the temperature, or range, at which the solid turns liquid) was 190 to 192 °C (dec.). The IC50 (usually the concentration that inhibits the measured activity by half) in data set [1] came out at 44 nM.
For `O/N=C/Nc1ccc(N2CCC3(CC2)OCCO3)c(F)c1` [Compound 34] the same measures were 165 to 167 °C and 7 nM.
On the same counts, the results for `OCCC1CCN(c2ccc(N/C=N/O)cc2F)CC1` [Compound 55] are 172 to 176 °C and 34.2 nM.
For `CN1CCN(c2ccc(N/C=N/O)cc2Cl)CC1` [Compound 68] the same measures were 188 to 189 °C and 107 nM.
On to `O/N=C/Nc1ccc(N2CC=CC2)c(Br)c1` [Compound 12], for which, in data set [1], the concentration for half-maximal inhibition (IC50) was 16 nM.
With `O/N=C/Nc1ccc(N2CCCCCC2)c(Cl)c1` [Compound 23], the melting point lay within 113 to 114 °C. The half-inhibitory concentration (IC50) in data set [1] is 2.2 nM.
On the same counts, the results for `O/N=C/Nc1ccc(N2CC=CCC2)c(C(F)(F)F)c1` [Compound 19] are 136.5 to 138 °C and 18 nM.
On the same counts, the results for `Cl.O/N=C/Nc1ccc(N2CCN(CCN3CCCC3)CC2)c(C(F)(F)F)c1` [Compound 96] are 229 to 231 °C (dec.) and 1530 nM.
Regarding `O/N=C/Nc1ccc(N2CCN(C3CCCCC3)CC2)cc1` [Compound 105], the IC50 in data set [1] turned out to be 14.8 nM.
Consider `O/N=C/Nc1ccc(N2CCC3(CC2)OCCO3)cc1` [Compound 33], for which the melting point lay within 157 to 158.5 °C. Further, in data set [1], the IC50 was 3.6 nM.
On the same counts, the results for `Cl.OCCN1CCN(c2ccc(N/C=N/O)cc2)CC1` [Compound 79] are 170 °C (dec.) and 71.9 nM.
On the same counts, the results for `Cl.O=C(CN1CCN(c2ccc(N/C=N/O)cc2)CC1)N1CCOCC1` [Compound 98] are 167 to 169 °C (dec.) and 69 nM.
On the same counts, the results for `Cc1cc(N2CC=CCC2)ccc1N/C=N/O` [Compound 20] are 146 to 149 °C and 663 nM.
Consider `O/N=C/Nc1ccc(N2CCOCC2)nc1` [Compound 128], for which the melting point is 172 to 174 °C.
Take `COc1cc(N2CCOCC2)ccc1N/C=N/O` [Compound 130]: the melting point is 189 to 190 °C (dec.). Moreover, in data set [1], the 50% inhibitory concentration (IC50) was determined as 46.1 nM.
For `Cl.O/N=C/Nc1ccc(N2CCN(CCN3CCCC3)CC2)c(Cl)c1` [Compound 94] the same measures were 161 to 163 °C and 222 nM.
On the same counts, the results for `OCCC1CCN(c2ccc(N/C=N/O)cn2)CC1` [Compound 132] are 151 to 153 °C and 37.3 nM.
`CCN1CCN(c2ccc(N/C=N/O)cc2Br)CC1` [Compound 75] yielded a melting point of 204.5 to 206.5 °C. Also, the IC50 in data set [1] was 154 nM.
Regarding `Cl.OCCN1CCN(c2ccc(N/C=N/O)cc2Cl)CC1` [Compound 81], the melting point is 200 to 202 °C (dec.). Besides, the 50% inhibitory concentration (IC50) in data set [1] was determined as 23.3 nM.
For `Cc1cc(N2CCC3(CC2)OCCO3)ccc1N/C=N/O` [Compound 39] the same measures were 147 to 150 °C and 4.3 nM.
In turn, `O=C(CN1CCN(c2ccc(N/C=N/O)cc2C(F)(F)F)CC1)N1CCOCC1` [Compound 103] came in with a melting point of 75 to 77 °C. The IC50 in data set [1] amounted to 21.4 nM.
On the same counts, the results for `Cc1cc(N2CCC(CCO)CC2)ccc1N/C=N/O` [Compound 58] are 152 to 154 °C and 31.2 nM.
On the same counts, the results for `O/N=C/Nc1ccc(N2CC=CCC2)c(Cl)c1` [Compound 16] are 135 to 137.5 °C and 2.2 nM.
For `CCN1CCN(c2ccc(N/C=N/O)cc2Cl)CC1` [Compound 74] the same measures were 207 to 209 °C and 73.2 nM.
Compound `O/N=C/Nc1ccc(N2CCN(C3CCCCC3)CC2)c(C(F)(F)F)c1` [Compound 110] gave a melting point of 93 to 96 °C. Besides, in data set [1], the IC50 was determined as 531 nM.
For `Cl.O=C(CN1CCN(c2ccc(N/C=N/O)cc2Cl)CC1)N1CCOCC1` [Compound 100] the same measures were 110 to 114 °C and 36.3 nM.
With `O/N=C/Nc1ccc(N2CCOCC2)nc1` [Compound 127, N-[2-(morpholino)pyridine-5-yl]-N′-hydroxyformamidine], the IC50 in data set [1] is 215 nM.
In turn, `O/N=C/Nc1ccc(N2CCSCC2)c(Br)c1` [Compound 4] showed a melting point of 149 to 151 °C. In addition, the 50% inhibitory concentration (IC50) in data set [1] stood at 2.3 nM.
In turn, `O/N=C/Nc1ccc(N2CC=CCC2)c(F)c1` [Compound 15] gave a melting point of 129 to 130 °C. Also, in data set [1], the IC50 stood at 3.9 nM.
On to `O/N=C/Nc1ccc(N2CCC(O)CC2)c(Cl)c1` [Compound 49], for which the melting point fell in the range of 93 to 97 °C. Besides, the half-inhibitory concentration (IC50) in data set [1] worked out at 3.4 nM.
On the same counts, the results for `CC1CN(c2ccc(N/C=N/O)cc2Cl)CC(C)O1` (stereo not shown) [Compound 9] are 163 to 164 °C (dec.) and 46.9 nM.
For `CCN1CCN(c2ccc(N/C=N/O)cc2)CC1` [Compound 72] the same measures were 220 to 222 °C and 39.2 nM.
In the case of `O/N=C/Nc1ccc(N2CCN(C3CCCCC3)CC2)c(Cl)c1` [Compound 107], in data set [1], the concentration for half-maximal inhibition (IC50) is 41.9 nM.
In turn, `O/N=C/Nc1ccc(N2CCC3(CC2)OCCO3)c(Cl)c1` [Compound 35] returned a melting point of 174 to 176 °C. In addition, the concentration for half-maximal inhibition (IC50) in data set [1] came to 5 nM.
For `O/N=C/Nc1ccc(N2CCCCCCC2)c(F)c1` [Compound 28] the same measures were 137 to 139 °C and 5.7 nM.
For `O/N=C/Nc1ccc(N2CC=CC2)c(Cl)c1` [Compound 11] the same measures were 118 to 121 °C and 12.5 nM.
For `CCN1CCN(c2ccc(N/C=N/O)cc2C(F)(F)F)CC1` [Compound 77] the same measures were 158 to 159 °C and 509 nM.
For the compound `Cl.O/N=C/Nc1ccc(N2CCN(CCN3CCCC3)CC2)c(F)c1` [Compound 93], the melting point was 205 °C (dec.). Besides, the 50% inhibitory concentration (IC50) in data set [1] is 135 nM.
For `O/N=C/Nc1ccc(N2CCCCCC2)c(C(F)(F)F)c1` [Compound 26] the same measures were 127 to 128.5 °C and 25.2 nM.
For `OCCC1CCN(c2ccc(N/C=N/O)cc2)CC1` [Compound 54] the same measures were 186 to 189 °C and 34.7 nM.
On the same counts, the results for `Cl.O/N=C/Nc1ccc(N2CCN(C3CCCCC3)CC2)c(Br)c1` [Compound 108] are 222 to 223 °C (dec.) and 293 nM.
With `CCN(CC)C(=O)C1CCCN(c2ccc(N/C=N/O)cc2C(F)(F)F)C1` (stereo not shown) [Compound 64], the melting point was 150 to 156 °C. Moreover, in data set [1], the IC50 worked out at 19.4 nM.
For `O/N=C/Nc1ccc(N2CCSCC2)c(Cl)c1` [Compound 3, N-hydroxyl-N′-(3-chloro-4-thiomorpholinophenyl)formamidine] the same measures were 137 to 138.5 °C and 3.6 nM.
On to `CCOC(=O)C1CCN(c2ccc(N/C=N/O)cc2Cl)CC1` [Compound 134], for which the melting point is 135 to 138 °C (dec.). Further, in data set [1], the IC50 worked out at 4 nM.
On the same counts, the results for `CC(=O)N1CCN(c2ccc(N/C=N/O)cn2)CC1` [Compound 129] are 191 to 192 °C (dec.) and 8.3 nM.
For `O/N=C/Nc1ccc(N2CCCCCCC2)cc1` [Compound 27] the same measures were 170 to 173 °C and 10.2 nM.
For `Cc1cc(N2CCN(CCN3CCCC3)CC2)ccc1N/C=N/O.Cl` [Compound 97], the melting point is 196 to 198 °C (dec.). The half-maximal inhibitory concentration (IC50) in data set [1] came to 758 nM.
For `Cc1cc(N2CCCC3CCCCC32)ccc1N/C=N/O` (stereo not shown) [Compound 46] the same measures were 154 to 156 °C and 33 nM.
For `COCCN(CCOC)c1ccc(N/C=N/O)cc1` [Compound 133] the same measures were 97 to 98 °C and 340 nM.
As to `COCCN(CCOC)c1ccc(N/C=N/O)cc1Cl` [Compound 119], the melting point fell in the range of 95 to 96.5 °C.
Take `CN(C)CCN1CCN(c2ccc(N/C=N/O)cc2)CC1.Cl` [Compound 86]: the melting point was 188 to 190 °C (dec.). In addition, the IC50 in data set [1] was found to be 962 nM.
For `CCN1CCN(c2ccc(N/C=N/O)cc2F)CC1` [Compound 73] the same measures were 197 to 200 °C and 37.2 nM.
Take `O/N=C/Nc1ccc(N2CCSCC2)c(F)c1` [Compound 2]: the melting point was 141 to 142 °C (dec.). The 50% inhibitory concentration (IC50) in data set [1] stood at 3.2 nM.
On the same counts, the results for `O/N=C/Nc1ccc(N2CCC(O)CC2)c(F)c1` [Compound 48] are 159 to 161 °C and 3.2 nM.
As to `O=C(CN1CCN(c2ccc(N/C=N/O)cc2Br)CC1)N1CCOCC1` [Compound 101], the IC50 in data set [1] came out at 20.8 nM.
`Cl.O/N=C/Nc1ccc(N2CCN(C3CCCCC3)CC2)c(F)c1` [Compound 106]: the melting point is 207 °C (dec.). The IC50 in data set [1] turned out to be 105 nM.
In turn, `O/N=C/Nc1ccc(N2CCSCC2)cc1` [Compound 1] displayed a melting point of 138 to 141 °C.
